One block for each compound: values may come before it.
Columns and labels:
[1] = test system: ovarian cancer cell line SKOV3; experiment: MTS cell viability assay in SKOV3; format: cell-based; details: SKOV3, 0.1-20 μM, 72 hours
Protocol: (§1) Specifically, cells were attached to 96 well plates for 24 hours, and then treated with the indazole derivatives for 72 hours. Thereafter, the cells were chromogenized with MTS for 4 hours, and the absorbance was measured at 490 nm using a Spectramax Plus384 microplate analyzer. The significance between the control group and the experimental group was verified using an unpaired Students t-test (*p<0.01; DMSO control vs indazole series).
(§2) In addition to the breast cancer cell line, a leukemia cell line HL-60, a liver cancer cell line HepG2, a colorectal cancer cell line HCT116, a prostate cancer cell line Du145, an ovarian cancer cell line SKOV3, and non-small cell lung cancer cell lines NCI-H1299 and A549 were treated with compound 11k (formula 1-7) at concentrations of 0 (DMSO), 0.1, 0.5, 1, 2, 5, 10, and 20 μM, respectively, for 72 hours, and then cell viability was measured using the MTS assay technique as explained by the description of Experimental Example 1. The significance between the control group and the experimental group was verified using an unpaired Students t-test (*p<0.01; DMSO control vs compound 11k).

[2] = Toxicity in JIMT-1 xenograft mice, combination with paclitaxel (body weight, AST, ALT, BUN); format: in vivo, Balb/c nude mice; details: combination study
[3] = test system: prostate cancer cell line Du145; experiment: MTS cell viability assay in Du145; format: cell-based; details: Du145, 0.1-20 μM, 72 hours
Protocol: as §1, §2

[4] = Toxicity in JIMT-1 xenograft mice (body weight, H&E of liver, kidney, lung, AST, ALT, BUN); format: in vivo, Balb/c nude mice; details: intraperitoneally, 30 mg/kg compound 18c or 20 mg/kg compound 11k
Protocol: (§3) 6-week-old mice (Balb/c nude mice) were purchased and raised in an environment where they could freely access food and water. The mice were acclimated for more than 7 days, and then were transplanted with tumor cells. Tumor cells were injected subcutaneously into the mammary gland tissue of JIMT-1 breast cancer cells at a density of 3×10^6 cells/mL per individual, and when the tumor reached a size of 50 to 100 mm^3, the indazole derivative of the present disclosure was administered intraperitoneally, and the tumor growth was measured. The experimental groups were treated with either 30 mg/kg of compound 18c (formula 1-16) or 20 mg/kg of compound 11k (formula 1-7), and tumor volume, tumor weight, body weight, and the like were measured every 3 to 4 days from the time of administration until the end of the study.
To determine whether the treatment with the indazole derivatives of the present disclosure would affect normal organs, a toxicity analysis was performed.
The mouse model was sacrificed. The liver, kidney, and lung tissues were fixed in 4% paraformaldehyde for 24 hours, washed in PBS buffer, and then embedded in paraffin. Tissue samples were sectioned and stained with H&E (hematoxylin & eosin). […]

[5] = test system: non-small cell lung cancer cell line NCI-H1299; experiment: MTS cell viability assay in NCI-H1299; format: cell-based; details: NCI-H1299, 0.1-20 μM, 72 hours
Protocol: as §1, §2

[6] = test system: MDA-MB-231 cell line; experiment: MTS cell viability assay in MDA-MB-231 cell line; format: cell-based; details: Homo sapiens, MDA-MB-231, 72 hours
Protocol: A HER2 positive breast cancer (HER2+BC) cell line, JIMT-1 (cell seeding numbers: 1.0 (JIMT)×10^4 cells/wells (confluency≤30%)) and a triple-negative breast cancer (TNBC) cell line, MDA-MB-231 (cell seeding numbers: 1.0 (M231)×10^4 cells/wells (confluency≤30%) were used in the experiment.
The above cell lines were cultured in Dulbecco's Modified Eagle's Medium (DMEM) or Eagle's minimum Essential Medium (MEM) each containing 10% fetal bovine serum (FBS), streptomycin-penicillin (100 U/ml), and Fungizone (0.625 μg/ml), respectively under 5% CO2, 37° C. environment.
The JIMT-1 cell line and MDA-MB-231 cell line were treated with the indazole derivatives (formulas 1-1 to 1-53) of the present disclosure at a concentration of 10 μM each for 72 hours, and then cell viability was measured using the MTS assay technique. The control group was treated with DMSO as an untreated group (0 μM) of the indazole derivative of the present disclosure.
as §1
HER2-positive breast cancer cell lines, BT474 (cell seeding numbers: 2.0 (JIMT)×10^4 cells/wells (confluency≤30%)) sensitive to trastuzumab, and JIMT-1 (cell seeding numbers: 1.0 (JIMT)×10^4 cells/wells (confluency≤30%)) resistant to trastuzumab, and a triple-negative breast cancer cell line, MDA-MB-231 (cell seeding numbers: 1.0 (M231)×10^4 cells/wells (confluency≤30%)) were used.
The BT474, JIMT-1, and MDA-MB-231 cell lines were treated with compound 18c (formula 1-16) and compound 11k (formula 1-7) at concentrations of 0 (DMSO), 0.1, 0.5, 1, 5, 10, and 20 μM, respectively, for 72 hours, and then cell viability was measured using the MTS assay technique as explained by the description of Experimental Example 1. The cell viability experiment was performed independently three times, and the significance was verified by a One-Way Anova, Bonferroni post-hoc test (*p<0.01; DMSO control vs. compound 18c or compound 11k).
In addition, the JIMT-1 and MDA-MB-231 cell lines were treated with compound 11m (formula 1-9), 11n (formula 1-10) and compound 12k (formula 1-13) at concentrations of 0 (DMSO), 0.1, 1, 5, 10, and 20 μM, respectively, for 72 hours, and then cell viability was measured.
Meanwhile, triple-negative breast cancer cell lines MDA-MB-231 and BT549, and a mouse breast cancer cell line 4T1 were treated with compound 38 (formula 1-30) at concentrations of 0 (DMSO), 0.1, 0.5, 1, 2, 5, 10, and 20 μM for 72 hours, and then cell viability was measured.
The indazole derivative of the present disclosure was compared with the benzopyran derivative of the related art (KR 10-2304532) in terms of cell viability of the BT474, JIMT-1, and MDA-MB-231 cell lines (Table 1). In this case, the cell lines were treated with the benzopyran derivative at a concentration of 10 μM for 72 hours and the cell lines were treated with the indazole derivative at a concentration of 10 μM for 72 hours, and then the cell viability was measured.

[7] = test system: JIMT-1 breast cancer cell line xenograft; experiment: Tumor growth in xenograft mouse model transplanted with JIMT-1; format: in vivo, Balb/c nude mice; details: intraperitoneally, 30 mg/kg compound 18c or 20 mg/kg compound 11k; for tumor volume / tumor weight: compared to the control group
Protocol: This experiment was performed in an in vivo environment using a xenograft mouse model transplanted with the JIMT-1 breast cancer cell line.
as §3

[8] = test system: non-small cell lung cancer cell line A549; experiment: MTS cell viability assay in A549; format: cell-based; details: A549, 0.1-20 μM, 72 hours
Protocol: as §1, §2

IC50 [6]: 2.69 µM
Compound: COc1c(C(=O)Nc2ccc3c(C)nn(CCC4CCN(C)CC4)c3c2)ccc2c1C=CC(C)(C)O2 [compound 11k, 5-Methoxy-2,2-dimethyl-N-(3-methyl-1-(2-(1-methylpiperidin-4-yl)ethyl)-1H-indazol-6-yl)-2H-chromene-6-carboxamide]
cell viability [1]: effective in inhibiting cell viability | AST and ALT levels, BUN assay ([2]; blood of the mouse model): levels similar to those of the control group | body weight [2]: remained unchanged | cell viability [3]: effective in inhibiting cell viability | body weight [4]: maintained | cell viability [5]: effective in inhibiting cell viability | tumor size (visual inspection) [7]: reduced by more than half | tumor volume [7]: significantly reduced | tumor weight [7]: significantly reduced | cell viability [8]: effective in inhibiting cell viability

IC50 [6]: 6.84 µM
Compound: COCCn1nc(NC(=O)c2ccc3c(c2OC)C=CC(C)(C)O3)c2ccccc21 [compound 18c, 5-Methoxy-N-(1-(2-methoxyethyl)-1H-indazol-3-yl)-2,2-dimethyl-2H-chromene-6-carboxamide]
body weight [4]: maintained | tumor size (visual inspection) [7]: reduced by more than half | tumor volume [7]: significantly reduced | tumor weight [7]: significantly reduced

Reference: US20260167629A1, “NOVEL INDAZOLE DERIVATIVE OR PHARMACEUTICALLY ACCEPTABLE SALT THEREOF, AND USE THEREOF” (KOREA UNIVERSITY RESEARCH AND BUSINESS FOUNDATION, priority 2022, published 2026)
